Reference: patent publication US20210154208A1, “Method to Identify Agents That Can Overcome Inhibition Caused By Drug-protein Binding of the Human Plasma Protein, Alpha-1-acid Glycoprotein” (The Johns Hopkins University, priority 2019, published 2021)
Each block holds one molecule with its values, some of them ahead of it.

Experiments:
[1] = tested on: MOLM-14 cells; test: Modified PIA, MTT proliferation with purified human AGP; assay type: cell-based; conditions: for inhibition of TKI activity by purified human AGP: MOLM-14, purified human AGP at physiologic concentration (1 mg/mL), sub-physiologic also tested; for ability to displace TKI (TTT-3002, CEP-701) from AGP: MOLM-14, AGP 1.0 mg/mL, increasing doses of competitor, FIG. 13
Protocol: (§1) In the original plasma inhibitory assay (PIA), FLT3/ITD-expressing cells are co-incubated with plasma samples from patients receiving a FLT3 TKI, and Western blotting analysis of FLT3 auto-phosphorylation is used to measure the extent of FLT3 inhibitory activity present in their plasma.(9) This can then be compared to total plasma drug levels to determine the relative efficacy of a drug in vivo compared to its activity in vitro. […] To model these effects in the pre-clinical setting, we modified the PIA assay. Whereas the PIA was designed to assess in vivo drug activity with regards to a specific target (e.g.: inhibition of FLT3 auto-phosphorylation by TKI), the modified PIA is similarly cell-based, but measures the clinically relevant biological end-points of cytotoxicity and proliferation inhibition, instead of target inhibition. In the modified assay, FLT3/ITD cell lines are cultured in the presence of human plasma or purified human plasma proteins and treated with a range of concentrations of the drug of interest. […] Furthermore, like the original PIA, Western blot analysis can be performed on cells treated in this manner to study specific pathways of interest (FIG. 1B). […] The modified PIA utilizes the general endpoint of cytotoxicity.
(§2) Where Δ is the fold-change in IC50, KA is the drug-protein association constant, P0 is the total protein concentration and PA is the drug-bound protein concentration. From this relationship, in the absence of other drug-protein interactions, fold-change is linearly related to drug-free protein concentration. […] When the analysis also takes into account drug-bound protein, these curves can be used to directly measure KA. To that end, we performed the modified PIA using purified AGP against the staurosporine-derived FLT3 TKI, using MOLM-14 cells (FIG. 4A). For comparison, we also assayed the anti-proliferative effects of non-specific protein kinase C inhibition by staurosporine itself in HL-60 cells (FLT3 wild-type AML).
(§3) Cells in logarithmic growth are resuspended in either human plasma or serum-free RPMI 1640 media supplemented with the plasma protein of interest and seeded in 96-well format at 50 μL per well. Cell density is 2×10^5 cells per well for MOLM-14 and Ba/F3-FLT3/ITD cells. To each well 50 μL of 2× drug dilution in RPMI 1640 media with 10% serum was added. Each condition is plated in quadruplicate. The cells are then incubated at 37° C. After 44 hours of treatment, 10 μL of 5 mg/mL thiazolyl blue tetrazolium bromide (MTT, Sigma) in PBS, sterile-filtered, is added to each well, and the plates are incubated for an additional 4 hours at 37° C. 100 of 10% sodium dodecyl sulfate (JT Baker) in 10 mM hydrochloric acid (Fisher) is then added to each well, and the plates are incubated at 37° C. overnight. Optical absorbance at 570 nm is measured via plate reader (iMark, Bio-Rad), averaging across technical replicates.

[2] = tested on: MOLM-14 cells; test: Modified plasma inhibition assay (PIA), MTT proliferation in 50% human plasma; assay type: cell-based; conditions: MOLM-14, 48 hours; for fold inhibition (increase in IC50) in the presence of 50% human plasma: MTT, 50% human plasma vs 10% FBS
Protocol: as §1
as §3, with “100 of 10% sodium dodecyl sulfate (JT Baker) in 10 mM hydrochloric acid (Fisher) is then added to each well, and the plates are incubated at 37° C. overnight.” left out

[3] = tested on: FLT3; test: Western blot of FLT3 autophosphorylation and downstream signaling; assay type: cell-based, human
Protocol: Cells in logarithmic growth are resuspended in either plasma or RPMI 1640 media supplemented with either 10% FBS serum or physiologic concentrations of purified plasma proteins. The cells are cultured for 1 hour at 37° C. in the presence of drug(s) with intermittent shaking. The cells are then washed, lysed with RIPA buffer (Sigma) per manufacturer's protocol, and total cell lysates separated by sodium dodecyl sulfate polyacrylamide gel electrophoresis (Invitrogen) with Western transfer onto polyvinyl difluoride membranes (Millipore). The membranes are probed for FLT3 by using the S-18 antibody (Santa Cruz), or for other proteins using the indicated antibodies (Cell Signaling Technology), followed by horseradish peroxidase-conjugated goat anti-rabbit secondary antibodies with enhanced chemiluminescence detection (Bio-Rad).

[4] = tested on: HL-60 cells; test: Modified PIA with purified AGP, anti-proliferative effect of staurosporine; assay type: cell-based, human; conditions: HL-60 cells (FLT3 wild-type AML)
From the text: as §2
Cells in logarithmic growth are resuspended in either human plasma or serum-free RPMI 1640 media supplemented with the plasma protein of interest and seeded in 96-well format at 50 μL per well. Cell density is 2×10^5 cells per well for MOLM-14 and Ba/F3-FLT3/ITD cells. To each well 50 μL of 2× drug dilution in RPMI 1640 media with 10% serum was added. Each condition is plated in quadruplicate. The cells are then incubated at 37° C. […] Optical absorbance at 570 nm is measured via plate reader (iMark, Bio-Rad), averaging across technical replicates.

[5] = tested on: Ba/F3-FLT3/ITD-Luc cells; test: Ba/F3-FLT3/ITD-Luc engrafted mouse model with human AGP, bioluminescent imaging; assay type: in vivo, BALB/c mice; conditions: mifepristone by oral gavage during treatment, imaged day 9
Protocol: We transplanted sublethally-irradiated BALB/c mice with Ba/F3-FLT3/ITD-Luc cells (Ba/F3 cells expressing both FLT3/ITD and a luciferase reporter). […] Twenty-four hours after the final treatment (day 9), the mice were again imaged to assess response (FIG. 8C).
BALB/c mice were transplanted after 300 cGy of sublethal X-ray irradiation using a CIXD irradiator (Xstrahl). 5×10^5 Ba/F3-FLT3/ITD-Luc cells were injected via tail vein. Intraperitoneal injections were performed using PBS vehicle with human AGP (Sigma) at 20 mg/mL. […] Mifepristone (Sigma) was dissolved in 50% ethanol and 50% (2-hydroxypropyl)-□-cyclodextrin (Sigma) and administered by oral gavage every 48 hours. Mice were imaged by intraperitoneal injection of luciferin (3 mg) and visualizing on an IVIS Spectrum imager (Caliper LifeSciences) using Living Image software for analysis on day 5 (to monitor engraftment) and on day 9 (to assess drug effect).

[6] = target: AGP (Homo sapiens, UniProt P02763); conditions: reported value; cited from earlier work
Chain of AGP (P02763 19-201): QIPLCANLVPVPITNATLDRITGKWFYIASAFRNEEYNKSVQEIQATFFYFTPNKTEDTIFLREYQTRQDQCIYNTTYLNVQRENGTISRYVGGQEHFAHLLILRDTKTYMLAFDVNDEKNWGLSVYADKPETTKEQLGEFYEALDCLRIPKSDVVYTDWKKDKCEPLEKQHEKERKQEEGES

fold inhibition (increase in IC50) in the presence of 50% human plasma [2]: 37 fold
SMILES: CC(C)(C)c1cc(NC(=O)Nc2ccc(-c3cn4c(n3)sc3cc(OCCN5CCOCC5)ccc34)cc2)no1 [quizartinib]
inhibition of TKI activity by purified human AGP [1]: not significant inhibited

SMILES: CNC(=O)[C@@]1(N)C[C@H]2O[C@]1(C)n1c3ccccc3c3c4c(c5c6ccccc6n2c5c31)C(=O)NC4 [TTT-3002]
inhibition of FLT3 phosphorylation in the presence of human plasma ([3]; MOLM-14, 1 hour, TKI 10 nM and 100 nM, human plasma): significant decrease in inhibition of FLT3 phosphorylation | fold inhibition by AGP (fold-change in IC50) ([1]; MOLM-14, purified AGP at physiologic concentrations): 30 fold | inhibition of TKI activity by purified human AGP [1]: comparable inhibition to that observed with human plasma | effect of human plasma on IC50 ([2]; 50% human plasma vs 10% fetal bovine serum): significantly increased the IC50 | fold inhibition (increase in IC50) in the presence of 50% human plasma [2]: 9 fold

SMILES: CN[C@@H]1C[C@H]2O[C@@](C)([C@@H]1OC)n1c3ccccc3c3c4c(c5c6ccccc6n2c5c31)C(=O)NC4 [staurosporine]
anti-proliferative activity in the presence of AGP [4]: no appreciable activity in the presence of AGP until saturating concentrations of drug were used

SMILES: CC#C[C@]1(O)CC[C@H]2[C@@H]3CCC4=CC(=O)CCC4=C3[C@@H](c3ccc(N(C)C)cc3)C[C@@]21C [mifepristone]
response of FLT3/ITD-expressing cells (bioluminescence), mifepristone added to midostaurin/AGP [5]: regression of the transplanted cells at levels comparable to those of the midostaurin alone treated mice | restoration of FLT3 inhibition by TTT-3002 in the presence of AGP ([3]; MOLM-14, TTT-3002 (2 nM), inhibiting AGP, increasing mifepristone): dose-dependent restoration of FLT3 inhibition | effect of agent alone on FLT3 autophosphorylation or downstream signaling ([3]; MOLM-14, mifepristone alone): no effect | KA (association constant with AGP) [6]: 7 to 8 µM⁻¹ | effect of agent alone on cell growth ([1]; MOLM-14, concentrations of maximal disinhibiting effect): no appreciable effect on cell growth | effect on TTT-3002 dose-response curve in the presence of purified AGP ([1]; MOLM-14, increasing concentrations of mifepristone, TTT-3002 plus AGP): dose-response curve shifted back to that seen in the absence of AGP | effect on TTT-3002 dose-response curves in the absence of AGP ([1]; MOLM-14, no AGP): no impact

SMILES: C[C@]12O[C@H](C[C@]1(O)CO)n1c3ccccc3c3c4c(c5c6ccccc6n2c5c31)CNC4=O [lestaurtinib]
fold inhibition by AGP, predicted ([1]; MOLM-14, purified AGP at physiologic concentrations, predicted): > 1000 fold | shift in IC50 with human AGP ([1]; human AGP): 500 fold

SMILES: O=C1CCC(N2C(=O)c3ccccc3C2=O)C(=O)N1 (centres unmarked) [thalidomide]
ability to displace TKI (TTT-3002, CEP-701) from AGP [1]: cannot displace the more tightly-bound TKI from AGP

SMILES: CN(C)CCC=C1c2ccccc2CCc2ccccc21 [amitriptyline]
ability to displace TKI (TTT-3002, CEP-701) from AGP [1]: cannot displace the more tightly-bound TKI from AGP

SMILES: CNC(=O)c1cc(Oc2ccc(NC(=O)Nc3ccc(Cl)c(C(F)(F)F)c3)cc2)ccn1 [sorafenib]
inhibition of TKI activity by purified human AGP [1]: not significant inhibited
